Here are results for 16 molecules from patent US10959432B2, “Microbiocidal oxadiazole derivatives” (Syngenta Participations AG, priority 2016, dated 2021).

Each structure is given as a SMILES string.

One data set deals with Uromyces viciae-fabae. The experiment in a line: Fungicidal activity against Uromyces viciae-fabae / field bean / leaf disc preventative (faba-bean rust). It is filed as in vivo. Conditions: foliar, 288 h, 100 ppm in the applied formulation, field bean leaf discs, preventative (inoculated two hours after application), assessed 12 days after application, read-out: disease control compared to untreated control leaf discs. In a few lines: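 Field bean leaf discs on water agar treated with 10 μl compound in acetone plus spreader, then spray-inoculated on the lower surface with Uromyces viciae-fabae spores 2 h later. Incubation at 22 °C, 18 h day, 70% RH; percent disease control versus untreated scored 12 days after application, compounds at 100 ppm.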

In data set [1] the test system is Glomerella laqenarium (Colletotrichum lagenarium). The experiment in a line: Fungicidal activity against Glomerella lagenarium (Colletotrichum lagenarium) liquid culture / cucumber / preventative (anthracnose). Format: cell-based. The note with it: Colletotrichum orbiculare; 20 ppm in the applied formulation; liquid culture in PDB, 24° C., 3 to 4 days after application; read-out: disease control compared to untreated control (inhibition of growth measured photometrically). In a few lines:
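Test compound, applied from DMSO solution, is combined with PDB containing conidia taken from cryogenic storage. After 3–4 days at 24 °C, growth is measured photometrically and antifungal activity expressed as percent relative to untreated control.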

For the next data set, the system named is Phakopsora pachyrhizi. The experiment in a line: Fungicidal activity against Phakopsora pachyrhizi / soybean / leaf disc preventative (Asian soybean rust). It is filed as in vivo. Conditions: foliar, 200 ppm in the applied formulation, soybean leaf disks, preventative (inoculated one day after application), assessed 12 to 14 days after application, read-out: disease control compared to untreated control leaf disks. In a few lines: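 Preventative test: compound applied to soybean leaf discs a day before spore inoculation of the lower surface. Discs kept at 20° C and 75% rh, first 24-36 h in darkness, then under 12 h light/day; disease control relative to untreated discs rated 12 to 14 days post-application.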

The test system of data set [2] is Puccinia recondita f. sp. tritici. The data set is described as follows: Fungicidal activity against Puccinia recondita f. sp. tritici / wheat / leaf disc preventative (brown rust). The note with it: foliar, 200 ppm in the applied formulation, wheat leaf segments cv. Kanzler, preventative (inoculated 1 day after application), assessed 7 to 9 days after application, read-out: disease control compared to untreated control leaf disks. It is filed as in vivo. In a few lines: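 Preventative leaf-segment test: compound sprayed at 200 ppm onto wheat (cv. Kanzler) segments, brown rust spores applied 1 day after. Kept at 19C and 75% rh under 12 h light/dark cycles; disease control versus untreated check read 7 to 9 days post-application.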

Data set [3] has the same test system. The data set is described as follows: Fungicidal activity against Puccinia recondita f. sp. tritici / wheat / leaf disc curative (brown rust). It is filed as in vivo. Conditions: foliar, 200 ppm in the applied formulation, wheat leaf segments cv. Kanzler, curative (applied 1 day after inoculation), assessed 6 to 8 days after application, read-out: disease control compared to untreated control leaf disks. In a few lines:
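Curative test: compound, diluted from DMSO stock into water, applied one day after spore inoculation of wheat (cv. Kanzler) leaf segments kept on agar in darkness at 19° C. and 75% RH. Climate-cabinet incubation (19° C., 75% RH, 12 h photoperiod); disease control relative to untreated read 6–8 days post-application.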

Molecule `O=C(NCC1CCCC1)c1ccc(-c2noc(C(F)(F)F)n2)cc1F` [Compound 2b.8, N (cyclopentylmethyl)-2-fluoro-4-[5-(trifluoromethyl)-1,2,4-oxadiazol-3-yl]benzamide] had a melting point of 122 to 125.6 °C. For the same molecule, the pest or weed control at 100 ppm in the data set on Uromyces viciae-fabae was ≥ 80%. Moreover, the inhibition at 20 ppm in data set [1] was ≥ 80%. Moreover, the pest or weed control at 200 ppm in the data set on Phakopsora pachyrhizi was ≥ 80%.
Regarding `O=C(NCCOC(F)F)c1ccc(-c2noc(C(F)(F)F)n2)cc1` [Compound 3a.45, N-[2-(difluoromethoxy)ethyl]-4-[5-(trifluoromethyl)-1,2,4-oxadiazol-3-yl]benzamide], the melting point was 117 to 120 °C. Besides, the pest or weed control at 200 ppm in data set [2] is ≥ 80%. In addition, in data set [1], the inhibition at 20 ppm is ≥ 80%. In data set [3], the pest or weed control at 200 ppm is ≥ 80%. The pest or weed control at 200 ppm in the data set with Phakopsora pachyrhizi was ≥ 80%.
As to `CC(NC(=O)c1ccc(-c2noc(C(F)(F)F)n2)cc1F)c1ccccc1` (stereo not shown) [Compound 4b.3, 2-fluoro-N-(1-phenylethyl)-4-[5-(trifluoromethyl)-1,2,4-oxadiazol-3-yl]benzamide], the melting point was in the range of 121.1 to 123.7 °C. The pest or weed control at 200 ppm in data set [2] is ≥ 80%. The pest or weed control at 100 ppm in the data set on Uromyces viciae-fabae was ≥ 80%. In addition, the pest or weed control at 200 ppm with Phakopsora pachyrhizi is ≥ 80%.
As to `CC(NC(=O)c1ccc(-c2noc(C(F)(F)F)n2)cc1F)C1CC1` (stereo not shown) [Compound 2b.5, N-(1-cyclopropylethyl)-2-fluoro-4-[5-(trifluoromethyl)-1,2,4-oxadiazol-3-yl]benzamide], the pest or weed control at 200 ppm (in data set [2]; in data set [3]; in the data set on Phakopsora pachyrhizi) was ≥ 80% each time. In addition, the pest or weed control at 100 ppm in the data set on Uromyces viciae-fabae was ≥ 80%. For the same molecule, the inhibition at 20 ppm in data set [1] is ≥ 80%.
For the molecule `O=C(NC1CCC1)c1ccc(-c2noc(C(F)(F)F)n2)cc1F` [Compound 2b.3, N-cyclobutyl-2-fluoro-4-[5-(trifluoromethyl)-1,2,4-oxadiazol-3-yl]benzamide], the pest or weed control at 200 ppm (in data set [2]; in data set [3]; with Phakopsora pachyrhizi) was ≥ 80% throughout. In the data set on Uromyces viciae-fabae, the pest or weed control at 100 ppm is ≥ 80%. For the same molecule, the inhibition at 20 ppm in data set [1] is ≥ 80%.
Consider `CN(CC(=O)NC(C)(C)C)C(=O)c1ccc(-c2noc(C(F)(F)F)n2)cc1` [Compound 3a.3, N-[2-(tert-butylamino)-2-oxo-ethyl]-N-methyl-4-[5-(trifluoromethyl)-1,2,4-oxadiazol-3-yl]benzamide], for which the pest or weed control at 200 ppm (in data set [2]; in data set [3]; in the data set with Phakopsora pachyrhizi) was ≥ 80% each time. In addition, the pest or weed control at 100 ppm with Uromyces viciae-fabae was ≥ 80%. Further, the inhibition at 20 ppm in data set [1] is ≥ 80%.
As to `O=C(NC1CCCSC1)c1ccc(-c2noc(C(F)(F)F)n2)cc1F` (stereo not shown) [Compound 1b.5, 2-fluoro-N-tetrahydrothiopyran-3-yl-4-[5-(trifluoromethyl)-1,2,4-oxadiazol-3-yl]benzamide], the pest or weed control at 200 ppm (in data set [2]; in data set [3]; in the data set with Phakopsora pachyrhizi) was ≥ 80% in each case. Besides, the pest or weed control at 100 ppm with Uromyces viciae-fabae was ≥ 80%. The inhibition at 20 ppm in data set [1] is ≥ 80%.
For `CC(COC(F)F)NC(=O)c1ccc(-c2noc(C(F)(F)F)n2)cc1` (stereo not shown) [Compound 3a.43, N-[2-(difluoromethoxy)-1-methyl-ethyl]-4-[5-(trifluoromethyl)-1,2,4-oxadiazol-3-yl]benzamide], the melting point lay in the range of 128 to 130 °C. Moreover, the pest or weed control at 200 ppm in data set [2] was ≥ 80%. Besides, in data set [1], the inhibition at 20 ppm was ≥ 80%. Besides, the pest or weed control at 200 ppm in data set [3] is ≥ 80%. Also, in the data set on Phakopsora pachyrhizi, the pest or weed control at 200 ppm was ≥ 80%.
In turn, `O=C(NCc1cccc(F)c1)c1ccc(-c2noc(C(F)(F)F)n2)cc1F` [Compound 4b.4, 2-fluoro-N-[(3-fluorophenyl)methyl]-4-[5-(trifluoromethyl)-1,2,4-oxadiazol-3-yl]benzamide] gave a melting point of 129.4 to 130.9 °C. Besides, the pest or weed control at 200 ppm in data set [2] was ≥ 80%. Besides, the pest or weed control at 100 ppm with Uromyces viciae-fabae was ≥ 80%. The pest or weed control at 200 ppm in the data set with Phakopsora pachyrhizi was ≥ 80%.
Turning to `CN(Cc1cccs1)C(=O)c1ccc(-c2noc(C(F)(F)F)n2)cc1F` [Compound 5b.2, 2-fluoro-N-methyl-N-(2-thienylmethyl)-4-[5-(trifluoromethyl)-1,2,4-oxadiazol-3-yl]benzamide], the pest or weed control at 200 ppm (in data set [2]; in data set [3]; in the data set with Phakopsora pachyrhizi) was ≥ 80% throughout. In addition, the pest or weed control at 100 ppm with Uromyces viciae-fabae was ≥ 80%. Besides, the inhibition at 20 ppm in data set [1] is ≥ 80%.
The molecule `O=C(NCc1ncc(C(F)(F)F)cc1Cl)c1ccc(-c2noc(C(F)(F)F)n2)cc1F` [Compound 5b.4, N-[[3-chloro-5-(trifluoromethyl)-2-pyridyl]methyl]-2-fluoro-4-[5-(trifluoromethyl)-1,2,4-oxadiazol-3-yl]benzamide] yielded a melting point of 126.6 to 128.3 °C. In addition, in the data set with Uromyces viciae-fabae, the pest or weed control at 100 ppm was ≥ 80%. Moreover, in the data set on Phakopsora pachyrhizi, the pest or weed control at 200 ppm was ≥ 80%.
`O=C(NCCc1ncc(C(F)(F)F)cc1Cl)c1ccc(-c2noc(C(F)(F)F)n2)cc1F` [Compound 5b.5, N-[2-[3-chloro-5-(trifluoromethyl)-2-pyridyl]ethyl]-2-fluoro-4-[5-(trifluoromethyl)-1,2,4-oxadiazol-3-yl]benzamide] showed a melting point of 144.9 to 146.5 °C. The pest or weed control at 100 ppm with Uromyces viciae-fabae is ≥ 80%. The pest or weed control at 200 ppm in the data set with Phakopsora pachyrhizi was ≥ 80%.
Consider `Cc1ccc(CNC(=O)c2ccc(-c3noc(C(F)(F)F)n3)cc2F)o1` [Compound 5b.9, 2-fluoro-N-[(5-methyl-2-furyl)methyl]-4-[5-(trifluoromethyl)-1,2,4-oxadiazol-3-yl]benzamide], for which the pest or weed control at 200 ppm (in data set [2]; in data set [3]; in the data set with Phakopsora pachyrhizi) was ≥ 80% throughout. Besides, the pest or weed control at 100 ppm in the data set with Uromyces viciae-fabae was ≥ 80%. Also, the inhibition at 20 ppm in data set [1] is ≥ 80%.
On to `COc1ccc(CNC(=O)c2ccc(-c3noc(C(F)(F)F)n3)cc2)c(OC)c1` [Compound 4a.13, N-[(2,4-dimethoxyphenyl)methyl]-4-[5-(trifluoromethyl)-1,2,4-oxadiazol-3-yl]benzamide], for which the pest or weed control at 200 ppm (in data set [2]; in data set [3]; in the data set on Phakopsora pachyrhizi) was ≥ 80% throughout. Besides, the pest or weed control at 100 ppm with Uromyces viciae-fabae is ≥ 80%. In addition, the inhibition at 20 ppm in data set [1] is ≥ 80%.
On to `CN(CC1COCCO1)C(=O)c1ccc(-c2noc(C(F)(F)F)n2)cc1F` (stereo not shown) [Compound 1b.9, N-(1,4-dioxan-2-ylmethyl)-2-fluoro-N-methyl-4-[5-(trifluoromethyl)-1,2,4-oxadiazol-3-yl]benzamide], for which the pest or weed control at 200 ppm (in data set [2]; in data set [3]; in the data set with Phakopsora pachyrhizi) was ≥ 80% each time. In the data set on Uromyces viciae-fabae, the pest or weed control at 100 ppm was ≥ 80%. Further, the inhibition at 20 ppm in data set [1] is ≥ 80%.
In the case of `CN(Cc1ccc(Cl)nc1)C(=O)c1ccc(-c2noc(C(F)(F)F)n2)cc1` [Compound 5a.9, N-[(6-chloro-3-pyridyl)methyl]-N-methyl-4-[5-(trifluoromethyl)-1,2,4-oxadiazol-3-yl]benzamide], the pest or weed control at 200 ppm (in data set [2]; in data set [3]; in the data set with Phakopsora pachyrhizi) was ≥ 80% in each case. For the same molecule, in the data set with Uromyces viciae-fabae, the pest or weed control at 100 ppm is ≥ 80%. Further, the inhibition at 20 ppm in data set [1] was ≥ 80%.

What is called melting point is the temperature of the solid-liquid transition. As usually defined, the inhibition is the percentage by which the read-out fell short of the control.
